Like-named read-outs stand apart in the source and are kept apart here.
Assays:
KYNA [1] = assay: Measurement of hippocampal KYNA levels by microdialysis; assay type: in vivo, rats
Description: Measurement of hippocampal kyna levels: Microdialysis was performed in adult, male rats (Charles-River; 200-250 g). Under anesthesia, a microdialysis probe (CMA/10, membrane length: 2 mm, Carnegie […], Stockholm, Sweden) was implanted vertically into the brain, extending throughout the dorsal hippocampus. On the next day, the probe was connected to a microperfusion pump, and the hippocampus of the unanesthetized rat was perfused with Ringer solution at a speed of 1 microliter/min. Dialysate was collected every 30 min. The concentration of KYNA in the dialysis samples was determined by HPLC with fluorimetric detection, using the analytical procedure described by Wu et al. (Eur. J. Neurosci., 4: 1264-1270,1992).

GLU = assay: Striatal GLU release by transcerebral microdialysis (caudate); assay type: in vivo, Wistar rats; details: caudate dialysate
Description: (§1) Striatal GLU release: Transcerebral microdialysis tubing having an exposed length of 1 mm for each caudate, were implanted through small burr holes drilled in the skull of anesthetized male Wistar rats. Approximately twelve hours after surgery, in freely moving animals, the membranes were perfused at a flow rate of 3.5 µl/min. After a washout period of approximately one hour, fractions were collected to determine the basal output of KYNA and of GLU. KYNA was measured using HPLC with post column derivatization and fluorometric detection as previously reported. HPLC separation and fluorometric detection was also used for quantitative measurements of GLU (Carpenedo et al 2001, Europ. J. Neuroscience 13, 2141-2147).

KYNA [2] = assay: KYNA output in caudate dialysate by transcerebral microdialysis; assay type: in vivo, Wistar rats
Description: as §1

brain KMO = molecular target: T1, brain KMO (Rattus norvegicus, UniProt O88867); assay: In vitro KMO activity determination (rat brain mitochondria preparation, HPLC of 3-OH-KYN formation); assay type: biochemical
T1 construct: from tissue; host or cells: rat brain cortex, mitochondrial fraction (male Wistar rats)
T1 sequence (O88867 whole entry): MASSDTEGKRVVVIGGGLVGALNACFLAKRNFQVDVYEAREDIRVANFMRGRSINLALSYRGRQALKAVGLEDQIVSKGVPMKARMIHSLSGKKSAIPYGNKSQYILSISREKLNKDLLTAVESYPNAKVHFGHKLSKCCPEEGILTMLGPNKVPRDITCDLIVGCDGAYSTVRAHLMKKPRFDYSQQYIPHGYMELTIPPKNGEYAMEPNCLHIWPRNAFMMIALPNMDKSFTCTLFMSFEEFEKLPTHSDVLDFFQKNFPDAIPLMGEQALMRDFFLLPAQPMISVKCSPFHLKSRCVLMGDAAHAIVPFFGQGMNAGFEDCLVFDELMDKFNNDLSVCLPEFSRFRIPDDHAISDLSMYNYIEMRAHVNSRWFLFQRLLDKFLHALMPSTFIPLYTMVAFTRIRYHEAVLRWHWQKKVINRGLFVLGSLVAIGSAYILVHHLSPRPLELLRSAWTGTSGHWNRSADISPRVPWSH
Description: Rat brain mitochondria preparation: Male Wistar rats were sacrificed and brain quickly removed, cortex was dissected out on ice and homogenized in 2.5 volumes of ice-cold 0.32 M saccarose using a glass-Teflon homogenizer. After centrifugation at 600 g for 10 min at 4°C, the supernatant was stored and the pellet was washed and centrifuged again. The two supernatants were pooled and centrifuged at 10,000 g for 10 min at 4°C. The pellet was washed in fresh saccarose and centrifuged twice at 15,000 g for 10 min at 4°C. The pellet (corresponding to the mitochondrial fraction) was resuspended in 2.5 volumes of ice-cold 20 mM potassium phosphate buffer containing 0.14 M KCl, pH 7.0. Protein content was determined by BCA protein assay kit from Pierce.
In vitro KMO activity determination: The enzyme activity was evaluated by measuring by HPLC the formation of 3-OH-KYN in homogenates incubated in the presence of a fixed concentration of KYN (close to the enzyme Km that in our experimental conditions is 30 µM) […]
IC50 values were determined from three independent inhibition curves using at least seven different inhibitor concentrations using non linear regression analysis (best fitting aided-computer program.

KMO = KMO (Homo sapiens, UniProt O15229); details: reported in WO 98/40344; read-out: IC50 for KMO inhibition; cited from earlier work
KMO, sequence (O15229 whole entry, species assumed): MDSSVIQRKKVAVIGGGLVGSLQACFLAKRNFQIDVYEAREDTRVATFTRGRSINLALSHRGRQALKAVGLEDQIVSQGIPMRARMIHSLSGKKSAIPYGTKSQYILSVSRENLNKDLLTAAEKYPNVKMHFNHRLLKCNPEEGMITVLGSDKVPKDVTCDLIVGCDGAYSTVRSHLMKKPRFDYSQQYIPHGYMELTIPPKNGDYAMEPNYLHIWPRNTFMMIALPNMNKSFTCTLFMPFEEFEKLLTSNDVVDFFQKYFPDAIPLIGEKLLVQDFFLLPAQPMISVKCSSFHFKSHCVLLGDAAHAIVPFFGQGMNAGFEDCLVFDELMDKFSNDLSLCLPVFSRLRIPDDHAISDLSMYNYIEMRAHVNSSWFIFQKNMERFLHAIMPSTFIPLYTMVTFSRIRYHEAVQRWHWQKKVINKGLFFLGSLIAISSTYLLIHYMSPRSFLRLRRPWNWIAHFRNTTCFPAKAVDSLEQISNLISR

| Structure (SMILES) | KYNA extracellular concentration, maximum increase (KYNA [1]; hippocampus dialysate, 50 mg/kg ip, 6 hours after drug administration, mean ± SEM, P< 0.01, basal 2.6 ± 0.2 nM) | brain KYNA content (KYNA [1]; hippocampus, 25 and 50 mg/kg i.p., systemic administration) | dialysate KYNA concentration (KYNA [1]; hippocampus, up to 24 h after both 25 and 50 mg/kg i.p., P<0.05) | decrease in GLU concentrations (GLU; 24 h later) | decrease in GLU concentrations (GLU; highest dose (30-100 µmol/kg i.p.), in 2 hrs (maximum), basal 4.3 ± 0.9 µM) | brain KYNA content, maximum increase (KYNA [2]; 180 min after drug administration, basal 13.2 ± 0.1 nM) | increase in dialysate KYNA concentration (KYNA [2]; up to 24 h after 100 µmol/kg i.p.) | IC50 (brain KMO; compound preincubated with mitochondria preparation for 30 min before adding the substrate (KYN), compared with IC50 without pre-incubation) | IC50 (brain KMO; in vitro brain KMO, without pre-incubation, KYN 50 µM, 60 min at 37°C, read-out: IC50) | IC50 (KMO) |
| --- | --- | --- | --- | --- | --- | --- | --- | --- | --- | --- |
| O=C(OC[C@H]1O[C@H](O)[C@H](O)[C@@H](O)[C@H]1O)[C@H]1C[C@@H]1C(=O)c1ccc(Cl)c(Cl)c1 | 26.7 ± 2.2 nM | dose-dependently increased | significant increase | -65% | -78 ± 8% | +750% | +280% | not significantly different | 0.066 µM |  |
| O=C(O)C1CC1C(=O)c1ccc(Cl)c(Cl)c1 (stereo not shown) [2-(3,4-dichlorobenzoyl)-cyclopropane-1-carboxylic acid] |  |  |  |  |  |  |  |  |  | 0.18 µM |

— patent EP1475385A1 (Newron Pharmaceuticals S.p.A., priority 2003, dated 2004)
